This is an account of results in patent publication US6642256B2, “Piperidine derivatives as subtype selective N-Methyl-D-Aspartate antagonists” (Warner-Lambert Company LLC, priority 2000, dated 2003).

The experiment addresses NR1A/NR2B NMDA receptor (Rattus norvegicus, UniProt P35439+Q00960). In words: Electrophysiological NR1A/NR2B assay in Xenopus oocytes (two-electrode voltage clamp). The format is cell-based. To be noted: Table 1; oocytes expressing NR1A/NR2B, currents activated by glutamate and glycine. From the text: I. Electrophysiological assays at NMDA receptor subunits (in vitro):
(i) Preparation of subunit RNA's:
cDNA clones encoding the NR1A, NR2A, NR2B, and NR2C rat NMDA receptor subtypes were used. (See, Moriyoshi et al., Nature (Lond.), 1991;354:31-37; Kutsuwada et al., Nature (Lond.), 1992;358:36-41; Monyer et al., Science (Washington, D.C.) 1992;256:1217-1221; Ikeda et al., FEBS Lett. 1992;313: 34-38; Ishii et al., J. Biol. Chem., 1993;268:2836-2843 for details of these clones or their mouse homologs). The clones were transformed into appropriate host bacteria and plasmid preparations were made with conventional DNA purification techniques. A sample of each clone was linearized by restriction enzyme digestion […] was synthesized with T3 RNA polymerase. The cRNA was diluted to 400 ng/μl and stored in 1 μl aliquots at −80° C. until injection.
(ii) The Xenopus oocyte expression system: […]
Electrical recordings were made using a conventional two-electrode voltage clamp (Dagan TEV-200) over periods ranging between 3 to 21 days following injection. […] Inhibitory potency of the novel antagonists of this invention was assessed on responses elicited by fixed concentrations of glutamate and glycine agonists, by measuring reductions in current induced by progressively increasing concentrations of invention compounds. […]

Chain of NR1A/NR2B NMDA receptor (Q00960 27-1482, other chains not shown): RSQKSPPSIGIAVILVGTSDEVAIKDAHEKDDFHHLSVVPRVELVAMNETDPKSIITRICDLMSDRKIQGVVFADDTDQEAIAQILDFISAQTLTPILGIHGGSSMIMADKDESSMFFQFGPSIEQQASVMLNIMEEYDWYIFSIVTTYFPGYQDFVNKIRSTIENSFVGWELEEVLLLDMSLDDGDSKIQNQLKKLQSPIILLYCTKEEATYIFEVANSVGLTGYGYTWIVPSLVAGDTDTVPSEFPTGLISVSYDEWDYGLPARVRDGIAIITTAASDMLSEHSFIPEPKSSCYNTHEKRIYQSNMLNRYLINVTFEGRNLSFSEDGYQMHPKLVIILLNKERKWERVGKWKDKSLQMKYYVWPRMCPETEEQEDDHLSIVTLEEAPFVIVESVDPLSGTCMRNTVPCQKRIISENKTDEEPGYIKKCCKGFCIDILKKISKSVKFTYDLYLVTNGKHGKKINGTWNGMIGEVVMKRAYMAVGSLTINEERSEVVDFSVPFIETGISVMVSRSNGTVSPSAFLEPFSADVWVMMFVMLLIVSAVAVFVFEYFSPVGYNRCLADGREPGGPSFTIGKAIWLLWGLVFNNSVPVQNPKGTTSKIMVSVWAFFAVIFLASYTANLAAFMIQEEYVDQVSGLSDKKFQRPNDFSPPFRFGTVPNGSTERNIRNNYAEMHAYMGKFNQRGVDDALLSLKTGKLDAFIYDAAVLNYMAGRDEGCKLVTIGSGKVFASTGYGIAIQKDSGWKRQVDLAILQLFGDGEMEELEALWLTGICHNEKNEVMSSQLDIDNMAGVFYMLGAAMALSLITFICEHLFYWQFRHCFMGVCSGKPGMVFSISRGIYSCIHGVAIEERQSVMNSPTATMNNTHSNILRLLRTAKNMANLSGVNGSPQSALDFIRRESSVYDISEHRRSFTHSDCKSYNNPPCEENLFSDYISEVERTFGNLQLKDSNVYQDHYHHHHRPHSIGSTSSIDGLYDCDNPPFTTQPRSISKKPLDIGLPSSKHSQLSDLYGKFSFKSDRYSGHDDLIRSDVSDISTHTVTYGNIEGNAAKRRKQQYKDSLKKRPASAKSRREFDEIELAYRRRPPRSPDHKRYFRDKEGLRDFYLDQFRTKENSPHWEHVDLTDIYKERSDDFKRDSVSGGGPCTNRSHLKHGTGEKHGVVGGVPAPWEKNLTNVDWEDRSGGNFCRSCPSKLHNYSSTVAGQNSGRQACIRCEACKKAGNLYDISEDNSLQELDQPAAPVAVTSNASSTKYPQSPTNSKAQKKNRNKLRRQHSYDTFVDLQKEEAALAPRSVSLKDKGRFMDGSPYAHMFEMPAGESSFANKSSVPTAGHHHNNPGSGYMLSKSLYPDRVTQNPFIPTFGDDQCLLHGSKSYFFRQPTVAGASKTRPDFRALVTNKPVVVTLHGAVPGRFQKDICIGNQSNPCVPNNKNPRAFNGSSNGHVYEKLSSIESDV

Turning to `O=c1[nH]c2ccc(C3=NOC(CN4CCC(Cc5ccccc5)CC4)C3)cc2o1` (racemic) [Example 1, 6-[5-(4-Benzylpiperidin-1-ylmethyl)-4,5-dihydroisoxazol-3-yl]-3H-benzoxazol-2-one], the IC50 – broadly, the concentration at which inhibition is half-maximal – turned out to be 0.08 µM.
